Reference: patent US5843449A, “Proteins and novel peptides derived from autoantigen for use in immunotherapy of autoimmune diseases” (Akzo Nobel N.V., priority 1996, dated 1998)
pIC50: −log10 of the molar value. Read-outs that look alike come from different tables or passages of the source. Residues, ends and D or L forms follow the SMILES beside them.

Experiments:
[1] = system: PBMC from RA patients; assay: Proliferative responses of PBMC from RA patients (3H-thymidine); format: cell-based, human; settings: 10% autologous serum
Method: Peripheral blood mononuclear cells (PBMC) from patients who were diagnosed as suffering from RA according to the American Rheumatism Association (ARA) criteria (Arnett et al., Arthritis Rheum. 31:315, 1988) were collected.
(§1) PBMC obtained from heparinized venous peripheral blood were isolated by standard centrifugation on a Ficoll-Paque gradient. […] Cultures were incubated in a total volume of 210 μl for 7 days at 37° C. in a humidified atmosphere of 5% CO2. Cultures were pulsed during the last 18 hours with 0.25 μCi^3 H-thymidine.

[2] = system: PBMC from healthy donors; assay: Proliferative responses of PBMC from healthy donors (3H-thymidine); format: cell-based, human; settings: 10% autologous serum
Method: PBMC's from healthy donors carrying the DR4Dw4 (DRB1*0401) or the DR1 specificity were collected as a control.
as §1

[3] = target: DR4Dw14 HLA-DR molecules; assay: HLA-DR peptide binding assay (competition with biotinylated marker peptide), DR4Dw14; set-up: species or system human; settings: pH = 5, 50 nM biotin-spacer-IHA(307-319)F marker peptide
[4] = target: T1, DR4Dw4 (DRB1*0401) HLA-DR molecules (Homo sapiens, UniProt P01903+P01911, A100K/A169T/F76Y/I96L/K127E/L162R/M171V/N62H/P40V/Q125Y/R42H/S133A/S149N/S66Y/V115G/V209L/W38E); assay: HLA-DR peptide binding assay (competition with biotinylated marker peptide), DR4Dw4; settings: pH = 5, 50 nM biotin-spacer-IHA(307-319)F marker peptide
T1 construct: endogenous in cells; host or cells: BSM, EBV-transformed B-cell line

CC(C)[C@H](N)C(=O)NCC(=O)N[C@@H](Cc1ccc(O)cc1)C(=O)N[C@@H](CC(=O)O)C(=O)N[C@@H](CC(=O)O)C(=O)N[C@@H](CCC(N)=O)C(=O)N[C@@H](CCC(=O)O)C(=O)N[C@@H](CO)C(=O)N[C@H](C(=O)N[C@@H](CCCCN)C(=O)N[C@@H](CO)C(=O)N[C@@H](CCCCN)C(=O)N[C@H](C(=O)O)C(C)C)C(C)C [Peptide 3] (H-VGYDDQESVKSKV-OH)
Proliferative response, stimulation index (SI) ([1]; RA patient 191-03 (HR), disease state IV, peptide 10 μg/l): 1
Proliferative response, stimulation index (SI) ([1]; RA patient 191-03 (HR), disease state IV, peptide 100 μg/l): < 2
Proliferative response, stimulation index (SI) ([1]; RA patient 215-0 (HR), disease state III-IV, peptide 25 μg/l): 3
Proliferative response, stimulation index (SI) ([1]; RA patient 215-0 (HR), disease state III-IV, peptide 100 μg/l): 6
Proliferative response, stimulation index (SI) ([1]; RA patient 240-0 (HR), disease state II-III, peptide 25 μg/l): 2
Proliferative response, stimulation index (SI) ([1]; RA patient 240-0 (HR), disease state II-III, peptide 100 μg/l): 6
Proliferative response, stimulation index (SI) ([1]; RA patient 242-0 (HR), disease state I, peptide 25 μg/l): 9
Proliferative response, stimulation index (SI) ([1]; RA patient 242-0 (HR), disease state I, peptide 100 μg/l): 3
Proliferative response, stimulation index (SI) ([1]; RA patient 243-0 (R), disease state III, peptide 10 μg/l): 1
Proliferative response, stimulation index (SI) ([1]; RA patient 243-0 (R), disease state III, peptide 100 μg/l): 1
Proliferative response, stimulation index (SI) ([1]; RA patient 247-0 (R), disease state III, peptide 10 μg/l): 1
Proliferative response, stimulation index (SI) ([1]; RA patient 248-0 (R), disease state III, peptide 10 μg/l): 1
Proliferative response, stimulation index (SI) ([1]; RA patient 248-0 (R), disease state III, peptide 100 μg/l): 1
Proliferative response, stimulation index (SI) ([1]; RA patient 272-0 (HR), disease state III-IV, peptide 10 μg/l): < 1
Proliferative response, stimulation index (SI) ([1]; RA patient 272-0 (HR), disease state III-IV, peptide 100 μg/l): < 1
Proliferative response, stimulation index (SI) ([1]; RA patient 273-0 (HR), disease state IV, peptide 10 μg/l): 1
Proliferative response, stimulation index (SI) ([1]; RA patient 273-0 (HR), disease state IV, peptide 100 μg/l): 6
Proliferative response, stimulation index (SI) ([1]; RA patient 275-0 (HR), disease state III, peptide 10 μg/l): 1
Proliferative response, stimulation index (SI) ([1]; RA patient 275-0 (HR), disease state III, peptide 100 μg/l): 1
Proliferative response, stimulation index (SI) ([1]; RA patient 276-0 (HR), disease state IV, burnt out, peptide 10 μg/l): < 1
Proliferative response, stimulation index (SI) ([1]; RA patient 276-0 (HR), disease state IV, burnt out, peptide 100 μg/l): 1
Proliferative response, stimulation index (SI) ([1]; RA patient 280-0 (HR), disease state IV, burnt out, peptide 10 μg/l): 1
Proliferative response, stimulation index (SI) ([1]; RA patient 280-0 (HR), disease state IV, burnt out, peptide 100 μg/l): 1
Proliferative response, stimulation index (SI) ([2]; healthy donor 155-03 (NR), peptide 10 μg/ml): < 2
Proliferative response, stimulation index (SI) ([2]; healthy donor 155-03 (NR), peptide 100 μg/ml): 1
Proliferative response, stimulation index (SI) ([2]; healthy donor 156-03 (NR), peptide 10 μg/ml): 1
Proliferative response, stimulation index (SI) ([2]; healthy donor 156-03 (NR), peptide 100 μg/ml): < 1
Proliferative response, stimulation index (SI) ([2]; healthy donor 157-03 (NR), peptide 10 μg/ml): 1
Proliferative response, stimulation index (SI) ([2]; healthy donor 157-03 (NR), peptide 100 μg/ml): 1
Proliferative response, stimulation index (SI) ([2]; healthy donor 157-04 (R), peptide 10 μg/ml): 1
Proliferative response, stimulation index (SI) ([2]; healthy donor 168-03 (NR), peptide 10 μg/ml): 1
Proliferative response, stimulation index (SI) ([2]; healthy donor 168-03 (NR), peptide 100 μg/ml): 1
Proliferative response, stimulation index (SI) ([2]; healthy donor 168.02 (NR), peptide 10 μg/ml): < 2
Proliferative response, stimulation index (SI) ([2]; healthy donor 168.02 (NR), peptide 100 μg/ml): < 2
Proliferative response, stimulation index (SI) ([2]; healthy donor 169-02 (NR), peptide 10 μg/ml): 1
Proliferative response, stimulation index (SI) ([2]; healthy donor 169-02 (NR), peptide 100 μg/ml): 1
Proliferative response, stimulation index (SI) ([2]; healthy donor 230-01 (NR), peptide 10 μg/ml): 1
Proliferative response, stimulation index (SI) ([2]; healthy donor 230-01 (NR), peptide 100 μg/ml): 1
Proliferative response, stimulation index (SI) ([2]; healthy donor 235-0 (NR), peptide 10 μg/ml): 1
Proliferative response, stimulation index (SI) ([2]; healthy donor 235-0 (NR), peptide 100 μg/ml): < 2
Proliferative response, stimulation index (SI) ([2]; healthy donor 235-01 (NR), peptide 10 μg/ml): < 1
Proliferative response, stimulation index (SI) ([2]; healthy donor 235-01 (NR), peptide 100 μg/ml): < 2
Proliferative response, stimulation index (SI) ([2]; healthy donor 236-01 (NR), peptide 10 μg/ml): 1
Proliferative response, stimulation index (SI) ([2]; healthy donor 236-01 (NR), peptide 100 μg/ml): < 1
Proliferative response, stimulation index (SI) ([2]; healthy donor 237-0 (NR), peptide 10 μg/ml): < 1
Proliferative response, stimulation index (SI) ([2]; healthy donor 237-0 (NR), peptide 100 μg/ml): 1
Proliferative response, stimulation index (SI) ([2]; healthy donor 237-01 (NR), peptide 10 μg/ml): 1
Proliferative response, stimulation index (SI) ([2]; healthy donor 237-01 (NR), peptide 100 μg/ml): 1
Proliferative response, stimulation index (SI) ([2]; healthy donor 238-01 (NR), first line so labelled, peptide 10 μg/ml): 1
Proliferative response, stimulation index (SI) ([2]; healthy donor 238-01 (NR), first line so labelled, peptide 100 μg/ml): 1
Proliferative response, stimulation index (SI) ([2]; healthy donor 238-01 (NR), second line so labelled, peptide 10 μg/ml): 1
Proliferative response, stimulation index (SI) ([2]; healthy donor 238-01 (NR), second line so labelled, peptide 100 μg/ml): 1
Proliferative response, stimulation index (SI) ([2]; healthy donor 241-0 (NR), peptide 10 μg/ml): < 1
Proliferative response, stimulation index (SI) ([2]; healthy donor 241-0 (NR), peptide 100 μg/ml): < 1
Proliferative response, stimulation index (SI) ([2]; healthy donor 241-01 (R), peptide 10 μg/ml): < 1
Proliferative response, stimulation index (SI) ([2]; healthy donor 241-01 (R), peptide 100 μg/ml): 1
pIC50 ([3]; DOT Blot, densitometer, read-out: ^R IC50, DR4Dw14, DOT Blot): < 5.00
pIC50 ([3]; SDS-PAGE, visual inspection, read-out: ^R IC50, DR4Dw14, SDS-PAGE): ≥ 4.30
pIC50 ([4]; DOT Blot, densitometer, read-out: ^R IC50, DR4Dw4, DOT Blot): 6.64
pIC50 ([4]; SDS-PAGE, visual inspection, read-out: ^R IC50, DR4Dw4, SDS-PAGE): 6.00
